Reference: ChEMBL document CHEMBL4007472, “Identification of novel TACE inhibitors compatible with topical application” (Bioorg Med Chem Lett, 2017)
≈ marks a conversion by molar mass, not a printed value.

How the values were obtained:
[1] = biological target: T1, Disintegrin and metalloproteinase domain-containing protein 17 (Homo sapiens, UniProt P78536); experiment: Inhibition of TACE in human PBMC assessed as inhibition of LPS-stimulated TNFalpha production
[2] = biological target: Disintegrin and metalloproteinase domain-containing protein 17 (Sus scrofa, UniProt O77636); experiment: Inhibition of porcine spleen TACE using Mca-Pro-LeuAla-Gln-Ala-Val-Dpa-Arg-Ser-Ser-Ser-[…]-NH2 as substrate by fluorescence assay
[3] = Stability in human liver microsomes assessed as parent compound remaining at 1 uM after 15 mins by LC-MS/MS analysis; type: ADME, microsome; settings: read-out: Stability
[4] = biological target: T1, Disintegrin and metalloproteinase domain-containing protein 17; experiment: Inhibition of recombinant human TACE catalytic domain using Mca-Pro-Leu-Ala-Gln-Ala-Val-Dpa-Arg-Ser-Ser-Ser-Arg-NH2 as substrate after 2 hrs by fluorescence assay
[5] = biological target: T1, Disintegrin and metalloproteinase domain-containing protein 17; experiment: Inhibition of TACE in NHEK assessed as reduction in LPS/TPA-stimulated TNFalpha production preincubated for 1 hr followed by LPS/TPA stimulation for 24 hrs by HTRF assay
[6] = biological target: T1, Disintegrin and metalloproteinase domain-containing protein 17; experiment: Inhibition of TACE (unknown origin)
[7] = biological target: T1, Disintegrin and metalloproteinase domain-containing protein 17; experiment: Inhibition of TACE (unknown origin) by cell based assay
[8] = Aqueous solubility of the compound; type: physicochemical
[9] = biological target: T1, Disintegrin and metalloproteinase domain-containing protein 17; experiment: Inhibition of recombinant TACE catalytic domain (unknown origin) using Abz-LAQAVRSSSR-Dpa as substrate preincubated for 10 mins followed by substrate addition measured after 10 mins by FRET assay; settings: read-out: IC50
[10] = biological target: Disintegrin and metalloproteinase domain-containing protein 17 (Mus musculus, UniProt Q9Z0F8); experiment: Inhibition of TACE in mouse RAW264.7 cells assessed as inhibition of LPS-stimulated TNFalpha production pretreated for 1 hr followed by LPS stimulation for 4 hrs by ELISA; type: cell-based; settings: read-out: IC50
Sequence of Disintegrin and metalloproteinase domain-containing protein 17 (Mus musculus, UniProt Q9Z0F8) (Q9Z0F8 whole entry, the tested form may be a part): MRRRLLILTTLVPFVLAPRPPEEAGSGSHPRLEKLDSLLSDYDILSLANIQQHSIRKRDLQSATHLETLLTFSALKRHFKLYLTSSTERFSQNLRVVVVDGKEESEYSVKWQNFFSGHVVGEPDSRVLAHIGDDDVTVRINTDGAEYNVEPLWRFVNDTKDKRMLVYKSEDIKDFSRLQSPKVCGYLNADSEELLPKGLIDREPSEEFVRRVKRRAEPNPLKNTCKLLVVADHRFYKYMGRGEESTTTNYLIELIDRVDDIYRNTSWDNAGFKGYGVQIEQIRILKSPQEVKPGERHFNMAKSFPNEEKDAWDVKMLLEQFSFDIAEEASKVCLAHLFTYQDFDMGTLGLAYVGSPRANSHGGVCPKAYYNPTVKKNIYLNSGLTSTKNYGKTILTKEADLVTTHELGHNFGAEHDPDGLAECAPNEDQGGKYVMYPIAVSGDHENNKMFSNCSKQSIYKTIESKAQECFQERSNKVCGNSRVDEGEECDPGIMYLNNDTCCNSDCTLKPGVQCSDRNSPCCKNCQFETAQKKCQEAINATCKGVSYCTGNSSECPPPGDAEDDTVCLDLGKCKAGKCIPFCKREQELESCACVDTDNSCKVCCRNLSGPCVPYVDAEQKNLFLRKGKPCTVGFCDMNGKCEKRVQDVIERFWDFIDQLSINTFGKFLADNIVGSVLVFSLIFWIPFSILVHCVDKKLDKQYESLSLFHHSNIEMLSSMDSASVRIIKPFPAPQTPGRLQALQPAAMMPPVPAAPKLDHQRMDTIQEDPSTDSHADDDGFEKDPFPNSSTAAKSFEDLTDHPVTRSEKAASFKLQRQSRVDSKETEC

T1 sequence (P78536 whole entry, the tested form may be a part): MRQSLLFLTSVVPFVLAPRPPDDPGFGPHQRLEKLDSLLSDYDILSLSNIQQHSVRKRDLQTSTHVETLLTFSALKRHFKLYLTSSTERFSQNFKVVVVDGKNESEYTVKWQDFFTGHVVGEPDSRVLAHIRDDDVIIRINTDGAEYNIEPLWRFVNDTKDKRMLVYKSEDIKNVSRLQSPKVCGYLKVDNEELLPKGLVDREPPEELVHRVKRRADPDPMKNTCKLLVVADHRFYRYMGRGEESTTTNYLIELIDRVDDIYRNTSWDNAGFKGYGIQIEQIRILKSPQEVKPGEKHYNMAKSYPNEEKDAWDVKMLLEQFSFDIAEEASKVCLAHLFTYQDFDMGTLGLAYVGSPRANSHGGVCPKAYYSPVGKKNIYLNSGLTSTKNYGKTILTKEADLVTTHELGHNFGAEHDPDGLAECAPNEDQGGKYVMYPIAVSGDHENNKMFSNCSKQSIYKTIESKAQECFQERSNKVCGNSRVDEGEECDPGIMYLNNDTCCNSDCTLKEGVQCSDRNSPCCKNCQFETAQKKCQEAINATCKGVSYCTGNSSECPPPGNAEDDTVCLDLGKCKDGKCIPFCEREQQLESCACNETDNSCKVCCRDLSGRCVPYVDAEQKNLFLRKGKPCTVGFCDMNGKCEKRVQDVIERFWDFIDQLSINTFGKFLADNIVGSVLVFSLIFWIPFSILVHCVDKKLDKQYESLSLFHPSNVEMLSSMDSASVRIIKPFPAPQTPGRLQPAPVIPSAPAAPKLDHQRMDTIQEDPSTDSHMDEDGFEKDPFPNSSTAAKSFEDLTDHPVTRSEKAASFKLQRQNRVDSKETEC
Sequence of Disintegrin and metalloproteinase domain-containing protein 17 (Sus scrofa, UniProt O77636) (O77636 whole entry, the tested form may be a part): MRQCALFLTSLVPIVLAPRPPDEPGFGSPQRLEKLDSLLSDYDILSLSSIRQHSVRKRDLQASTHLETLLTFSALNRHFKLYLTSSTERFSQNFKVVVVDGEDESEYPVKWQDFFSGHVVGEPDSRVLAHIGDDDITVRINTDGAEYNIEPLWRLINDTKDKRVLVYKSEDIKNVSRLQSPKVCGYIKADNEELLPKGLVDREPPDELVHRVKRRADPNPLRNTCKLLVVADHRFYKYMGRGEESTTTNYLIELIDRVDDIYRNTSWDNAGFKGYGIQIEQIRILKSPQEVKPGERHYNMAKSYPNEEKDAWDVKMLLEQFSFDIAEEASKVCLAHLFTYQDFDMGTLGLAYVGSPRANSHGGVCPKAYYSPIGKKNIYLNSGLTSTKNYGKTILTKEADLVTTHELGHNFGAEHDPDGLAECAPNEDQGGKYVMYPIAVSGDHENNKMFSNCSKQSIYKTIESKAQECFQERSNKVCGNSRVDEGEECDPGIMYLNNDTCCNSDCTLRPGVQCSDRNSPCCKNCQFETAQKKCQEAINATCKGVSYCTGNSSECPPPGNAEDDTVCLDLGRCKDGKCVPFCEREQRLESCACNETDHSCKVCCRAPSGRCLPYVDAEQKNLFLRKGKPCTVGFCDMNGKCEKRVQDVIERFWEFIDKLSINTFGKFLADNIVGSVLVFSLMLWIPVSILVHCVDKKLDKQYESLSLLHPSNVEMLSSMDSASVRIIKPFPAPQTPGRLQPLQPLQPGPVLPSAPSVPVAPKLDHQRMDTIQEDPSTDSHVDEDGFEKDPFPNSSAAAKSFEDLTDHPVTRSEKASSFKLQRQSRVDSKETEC

COC(=O)CCC[C@H](C(=O)NO)N1CCNc2cc(OCc3cc(OC)cc(OC)c3)ccc2S1
IC50 [1]: 900 nM
IC50 [2]: 10 nM

C[C@H](C(=O)NO)N1CCNc2cc(Oc3cccc([N+](=O)[O-])c3)ccc2S1
IC50 [1]: 470 nM
IC50 [2]: 129 nM

CCC(=O)N1CCN(S(=O)(=O)c2ccc(OCc3cc(C)nc4c3CCCC4)cc2)CC1C(=O)NO (centres undefined)
remaining at […], 1 µM [3]: 100%
IC50 [4]: 23 nM

COc1cc(COc2ccc3c(c2)NCCN([C@H](CC(C)C)C(=O)NO)S3)cc(OC)c1
IC50 [1]: 5400 nM
IC50 [2]: 17 nM

C[C@H](C(=O)NO)N1CCNc2cc(Oc3ccc(C(F)(F)F)cc3)ccc2S1
IC50 [1]: 840 nM
IC50 [2]: 758 nM

Cc1cc(COc2ccc(S(=O)(=O)N3CCN(C4CCC4)C(C(=O)NO)C3)cc2)c2c(n1)CCCC2 (centres undefined)
remaining at […], 1 µM [3]: 54%
IC50 [4]: 150 nM
IC50 [5]: > 10 µM

CNC(=O)[C@@H]1Cc2ccc(cc2)OCCCC[C@H](C(=O)NO)[C@@H](CCCc2ccc(Cl)cc2)C(=O)N1
IC50 [6]: 3.16 nM
IC50 ([7]; read-out: pIC50 (converted)): 0.398 µM

CCOc1cc(COc2ccc3c(c2)NCCN([C@H](CCCC(=O)OC)C(=O)NO)S3)cc(OCC)c1
IC50 [1]: 1100 nM
IC50 [2]: 13 nM

CC(C)C[C@H](C(=O)NO)N1CCNc2cc(OCc3ccccc3)ccc2S1
IC50 [1]: 350 nM
IC50 [2]: 177 nM

C[C@H](C(=O)NO)N1CCNc2cc(Oc3ccc([N+](=O)[O-])cc3)ccc2S1
IC50 [1]: 1200 nM
IC50 [2]: 11 nM

Cc1cc(COc2ccc(S(=O)(=O)N3CCN(C(=O)C(C)C)C(C(=O)NO)C3)cc2)c2c(n1)CCCC2 (centres undefined)
remaining at […], 1 µM [3]: 91%
IC50 [4]: 26 nM

Cc1cc(COc2ccc(S(=O)(=O)N3CCN(S(C)(=O)=O)C(C(=O)NO)C3)cc2)c2c(n1)CCCC2 (centres undefined)
remaining at […], 1 µM [3]: 88%
IC50 [4]: 29 nM

Cc1cc(COc2ccc(S(=O)(=O)N3Cc4ccccc4C(C(=O)NO)C3)cc2)c2ccccc2n1 (centres undefined)
IC50 [4]: 84 nM
IC50 [5]: > 10 µM

COc1cc(COc2ccc3c(c2)NCCN([C@@H](C(=O)NO)C(C)C)S3)cc(OC)c1
IC50 [1]: 4000 nM
IC50 [2]: 10 nM

CC(C)C[C@H](C(=O)NO)N1CCNc2cc(O)ccc2S1
IC50 [1]: 9500 nM
IC50 [2]: 89 nM

Cc1cc(COc2ccc(S(=O)(=O)N3CCCC(C(=O)NO)C3)cc2)c2ccccc2n1 (centres undefined)
IC50 [4]: 60 nM
IC50 [5]: > 10 µM
solubility [8]: < 1 µM

CCOc1cc(COc2ccc3c(c2)NCCN([C@@H](C(=O)NO)C(C)C)S3)cc(OCC)c1
IC50 [1]: 8200 nM
IC50 [2]: 51 nM

C[C@H](C(=O)NO)N1CCNc2cc(OCc3cc(Cl)cc(Cl)c3)ccc2S1
IC50 [1]: 940 nM
IC50 [2]: 153 nM

COc1cc(COc2ccc3c(c2)NCCN([C@H](C)C(=O)NO)S3)cc(OC)c1
IC50 [1]: 770 nM
IC50 [2]: 27 nM

CNC(=O)[C@@H]1Cc2ccc(cc2)OCCCC[C@H](C(=O)NO)[C@@H](CCCc2cc(OC)ccc2OC)C(=O)N1
IC50 [6]: 6.31 nM
IC50 ([7]; read-out: pIC50 (converted)): 3.98 µM

Cc1cc(COc2ccc(S(=O)(=O)N3CCN(C(=O)CC(C)C)C(C(=O)NO)C3)cc2)c2c(n1)CCCC2 (centres undefined)
remaining at […], 1 µM [3]: 64%
IC50 [4]: 23 nM

COc1cc(COc2ccc3c(c2)NCCN([C@H](CCCCNS(C)(=O)=O)C(=O)NO)S3)cc(OC)c1
IC50 [1]: 1900 nM
IC50 [2]: 5 nM

CCOc1cc(COc2ccc3c(c2)NCCN([C@H](C)C(=O)NO)S3)cc(OCC)c1
IC50 [1]: 4500 nM
IC50 [2]: 81 nM

CNC(=O)[C@@H]1Cc2ccc(cc2)OCCCC[C@H](C(=O)NO)[C@@H](CCCc2cc(C(F)(F)F)cc(C(F)(F)F)c2)C(=O)N1
IC50 [6]: 31.6 nM
IC50 ([7]; read-out: pIC50 (converted)): 0.316 µM

Cc1cc(COc2ccc(S(=O)(=O)N3CCN(C(=O)C4CCC4)C(C(=O)NO)C3)cc2)c2c(n1)CCCC2 (centres undefined)
remaining at […], 1 µM [3]: 83%
IC50 [4]: 19 nM

Cc1cc(COc2ccc(S(=O)(=O)N3CCN(C(=O)c4ccccc4)C(C(=O)NO)C3)cc2)c2c(n1)CCCC2 (centres undefined)
remaining at […], 1 µM [3]: 85%
IC50 [4]: 16 nM

Cc1cc(COc2ccc(S(=O)(=O)NC[C@@H](C(=O)NO)N3CCCCC3)cc2)c2c(n1)CCCC2
IC50 [4]: 6 nM
IC50 [5]: 0.06 µM

Cc1nc(COc2ccc3c(c2)NCCN([C@@H](C(=O)NO)C(C)C)S3)sc1C
IC50 [1]: 24500 nM
IC50 [2]: 290 nM

O=C(c1ccccc1)[C@@H]1Cc2ccc(cc2)OCCCC[C@H](C(=O)NO)[C@@H](CCCc2cc(Br)cc(Br)c2)C(=O)N1
IC50 [6]: 79.4 nM
IC50 ([7]; read-out: IC50): 5 µM

CC(=O)N1C[C@@H](S(=O)(=O)c2ccc(OCc3cc(C)nc4c3CCCC4)cc2)C[C@H]1C(=O)NO
IC50 [4]: 350 nM
IC50 [5]: > 10 µM

CCOc1cc(COc2ccc3c(c2)NCCN([C@H](CCC(=O)OC)C(=O)NO)S3)cc(OCC)c1
IC50 [1]: 6200 nM
IC50 [2]: 242 nM

COC(=O)CC[C@H](C(=O)NO)N1CCNc2cc(OCc3cc(OC)cc(OC)c3)ccc2S1
IC50 [1]: 7200 nM
IC50 [2]: 177 nM

COC(=O)N1CCN(S(=O)(=O)c2ccc(OCc3cc(C)nc4c3CCCC4)cc2)CC1C(=O)NO (centres undefined)
remaining at […], 1 µM [3]: 100%
IC50 [4]: 40 nM

Cc1cc(COc2ccc(S(=O)(=O)N3CCN(C)C(C(=O)NO)C3)cc2)c2c(n1)CCCC2 (centres undefined)
remaining at […], 1 µM [3]: 80%
IC50 [4]: 160 nM

CC(=O)N1CCN(S(=O)(=O)c2ccc(OCc3cc(C)nc4c3CCCC4)cc2)CC1C(=O)NO (centres undefined)
remaining at […], 1 µM [3]: 92%
IC50 [4]: 14 nM
IC50 [5]: 9.1 µM
solubility [8]: 61 µM (≈ 30.7 µg/mL)

Cc1cc(COc2ccc(S(=O)(=O)N3CCC(C)(C(=O)NO)C3)cc2)c2ccccc2n1 (centres undefined)
IC50 [4]: 35 nM
IC50 [5]: > 10 µM
solubility [8]: 41 µM (≈ 18.7 µg/mL)

COCCOc1cc(CCC[C@H]2C(=O)N[C@H](C(=O)c3ccccc3)Cc3ccc(cc3)OCCCC[C@@H]2C(=O)NO)cc(OC)c1
IC50 [6]: 79.4 nM
IC50 ([7]; read-out: pIC50 (converted)): 15.8 µM

Cc1cc(COc2ccc(S(=O)(=O)N[C@@H]3CCN(C=O)C[C@]3(C)C(=O)NO)cc2)c2ccccc2n1
IC50 [9]: 0.6 nM
IC50 [10]: 1000 nM

Cc1cc(COc2ccc(S(=O)(=O)N3CCN(C(=O)C4CC4)C(C(=O)NO)C3)cc2)c2c(n1)CCCC2 (centres undefined)
remaining at […], 1 µM [3]: 88%
IC50 [4]: 13 nM
IC50 [5]: 3.1 µM
solubility [8]: 58 µM (≈ 30.7 µg/mL)

Cc1cc(COc2ccc(S(=O)(=O)N3CCC(C(=O)NO)C3)cc2)c2c(n1)CCCC2 (centres undefined)
IC50 [4]: 210 nM
IC50 [5]: > 10 µM

Cc1cc(COc2ccc3c(c2)NCCN([C@H](C)C(=O)NO)S3)cc(C)n1
IC50 [1]: 2900 nM
IC50 [2]: 544 nM
